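Where inhibition never reached the appropriate level, the endpoint shown equals the highest concentration tested. Otherwise, values were interpolated linearly from a five-concentration, 48-hour dose response in 96-well plates. Abbreviation: GI50, concentration required for 50% inhibition of growth.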 The source made the active and inactive calls. No stated cut-off is given here; in the data, active = GI50 up to about 1.1 µM and inactive = higher.
How the values were obtained:
Assay in all cases: inhibition of tumour cell growth, NCI panel, 48 h
Malme-3M = tested on: Malme-3M
OVCAR-4 = tested on: OVCAR-4
A549 = tested on: A549
MDA-MB-231 = tested on: MDA-MB-231
SF-539 = tested on: SF-539
M14 = tested on: M14
ACHN = tested on: ACHN
SK-MEL-2 = tested on: SK-MEL-2
UACC-257 = tested on: UACC-257
HT-29 = tested on: HT-29
SW-620 = tested on: SW-620
SNB-19 = tested on: SNB-19
SK-OV-3 = tested on: SK-OV-3
SN12C = tested on: SN12C
MCF7 = tested on: MCF7
DU-145 = tested on: DU-145
HOP-92 = tested on: HOP-92
HCT-116 = tested on: HCT-116
786-0 = tested on: 786-0
KM12 = tested on: KM12
RPMI-8226 = tested on: RPMI-8226
T47D = tested on: T47D
OVCAR-8 = tested on: OVCAR-8
IGROV-1 = tested on: IGROV-1
EKVX = tested on: EKVX
SK-MEL-5 = tested on: SK-MEL-5
NCI/ADR-RES = tested on: NCI/ADR-RES
TK-10 = tested on: TK-10
HCT-15 = tested on: HCT-15
Hs-578T = tested on: Hs-578T
OVCAR-5 = tested on: OVCAR-5
MDA-N = tested on: MDA-N
NCI-H23 = tested on: NCI-H23
U-251 = tested on: U-251
UO-31 = tested on: UO-31
CCRF-CEM = tested on: CCRF-CEM
CAKI-1 = tested on: CAKI-1
SNB-75 = tested on: SNB-75
SK-MEL-28 = tested on: SK-MEL-28
MOLT-4 = tested on: MOLT-4
OVCAR-3 = tested on: OVCAR-3
PC-3 = tested on: PC-3
K562 = tested on: K562
UACC-62 = tested on: UACC-62
LOX IMVI = tested on: LOX IMVI
COLO 205 = tested on: COLO 205
SF-295 = tested on: SF-295
NCI-H460 = tested on: NCI-H460
HCC 2998 = tested on: HCC 2998
NCI-H226 = tested on: NCI-H226
BT-549 = tested on: BT-549
HL-60 = tested on: HL-60
MDA-MB-435 = tested on: MDA-MB-435
SF-268 = tested on: SF-268
HOP-62 = tested on: HOP-62
RXF 393 = tested on: RXF 393

SMILES: Cc1cccc2c(N)c3cccc(C(=O)NCC[N+](C)(C)[O-])c3nc12
- GI50 (Malme-3M): 12.7 µM (inactive)
- GI50 (OVCAR-4): 10.3 µM (inactive)
- GI50 (A549): 1.24 µM (inactive)
- GI50 (MDA-MB-231): 20.4 µM (inactive)
- GI50 (SF-539): 6.82 µM (inactive)
- GI50 (M14): 19.2 µM (inactive)
- GI50 (ACHN): 2.83 µM (inactive)
- GI50 (SK-MEL-2): 67.5 µM (inactive)
- GI50 (UACC-257): 20.6 µM (inactive)
- GI50 (HT-29): 6.01 µM (inactive)
- GI50 (SW-620): 5.53 µM (inactive)
- GI50 (SNB-19): 7.87 µM (inactive)
- GI50 (SK-OV-3): 14 µM (inactive)
- GI50 (SN12C): 3.64 µM (inactive)
- GI50 (MCF7): 2.1 µM (inactive)
- GI50 (DU-145): 3.02 µM (inactive)
- GI50 (HOP-92): 10.5 µM (inactive)
- GI50 (HCT-116): 13.2 µM (inactive)
- GI50 (786-0): 2.46 µM (inactive)
- GI50 (KM12): > 100 µM (inactive)
- GI50 (RPMI-8226): 9.44 µM (inactive)
- GI50 (T47D): 13.8 µM (inactive)
- GI50 (OVCAR-8): 8.61 µM (inactive)
- GI50 (IGROV-1): 8.39 µM (inactive)
- GI50 (EKVX): 15.6 µM (inactive)
- GI50 (SK-MEL-5): 22.8 µM (inactive)
- GI50 (NCI/ADR-RES): 6.21 µM (inactive)
- GI50 (TK-10): 21.8 µM (inactive)
- GI50 (HCT-15): 11.3 µM
- GI50 (Hs-578T): 5.37 µM (inactive)
- GI50 (OVCAR-5): 5.32 µM (inactive)
- GI50 (MDA-N): 14.2 µM (inactive)
- GI50 (NCI-H23): 3.76 µM (inactive)
- GI50 (U-251): 4 µM (inactive)
- GI50 (UO-31): 21.7 µM (inactive)
- GI50 (CCRF-CEM): 2.49 µM (inactive)
- GI50 (CAKI-1): 3.42 µM (inactive)
- GI50 (SNB-75): 1.32 µM (inactive)
- GI50 (SK-MEL-28): 17.3 µM (inactive)
- GI50 (MOLT-4): 0.542 µM (active)
- GI50 (OVCAR-3): 16.1 µM (inactive)
- GI50 (PC-3): 13.5 µM (inactive)
- GI50 (K562): 3.13 µM (inactive)
- GI50 (UACC-62): 8.99 µM (inactive)
- GI50 (LOX IMVI): 10.4 µM (inactive)
- GI50 (COLO 205): 9.57 µM (inactive)
- GI50 (SF-295): 6.76 µM (inactive)
- GI50 (NCI-H460): 0.538 µM (active)
- GI50 (HCC 2998): 10.2 µM (inactive)
- GI50 (NCI-H226): 3.05 µM (inactive)
- GI50 (BT-549): 15.2 µM (inactive)
- GI50 (HL-60): 4.05 µM (inactive)
- GI50 (MDA-MB-435): 16.8 µM (inactive)
- GI50 (SF-268): 1.96 µM (inactive)
- GI50 (HOP-62): 3.61 µM (inactive)
- GI50 (RXF 393): 12.6 µM (inactive)
